Data published in PMC6920806, “Synthesis of β-D-galactopyranoside-Presenting Glycoclusters, Investigation of Their Interactions with Pseudomonas aeruginosa Lectin A (PA-IL) and Evaluation of Their Anti-Adhesion Potential” (Biomolecules, 2019).
≈ marks a conversion by molar mass, not a printed value. Entries after “also recorded” stand apart in the source; their conditions may differ.

Legend:
[1] = target: T1, lectin PA-IL (Pseudomonas aeruginosa, UniProt Q05097); test: Hemagglutination inhibition assay (HIA) with microscope detection; format: biochemical; conditions: for Potency (MIC of standard/MIC of inhibitor) / β (Potency/Valency): HIA, standard D-galactose; for MIC (minimal inhibitory concentration): inhibition of hemagglutination caused by PA-IL (0.125 mg mL−1), papain-treated red blood cells B+
T1 construct: made in house; host or cells: Escherichia coli BL21(DE3)
Experimental: PA-IL was dissolved in the buffer with calcium ions suitable for the activity of the lectin (20 mM Tris/HCl, 150 mM NaCl, 5 mM CaCl2, pH = 7.5) to the concentration 0.25 mg mL^−1. Lectin was mixed with carbohydrate inhibitors serially diluted in the buffer in a 5 µL:5 µL ratio. Therefore, the final (working) concentration of the lectin was 0.125 mg mL^−1. A total of 10 µL of 20% papain-treated, azid-stabilized red blood cells B^+ in the buffer was then added, and the mixture was thoroughly mixed and incubated for 5 min at room temperature. After incubation, the mixture was again mixed, transferred to a microscope slide, and examined. The examination was conducted using the Levenhuk D2L NG Digital Microscope (Levenhuk, Tampa, FL, USA). Images were obtained with a Levenhuk D2L digital camera (Levenhuk, Tampa, FL, USA) using the software ToupView for Windows (Version 3.7, Levenhuk, Tampa, FL, USA). The positive (experiment without inhibitor) and negative control (experiment without lectin) were prepared and processed in the same way using the appropriate volume of dissolving buffer instead of the omitted components. The minimal inhibitory concentration (MIC) of the inhibitor able to inhibit hemagglutination was determined and compared with the standard (D-galactose) and the potency of the inhibitor was calculated (MIC of the standard/MIC of the inhibitor).

[2] = target: T1, lectin PA-IL; test: Analytical ultracentrifugation (sedimentation velocity), cross-linking of lectin; conditions: for level of cross-linking (6.4 S octameric species): 1:0.1 protein to ligand ratio, 22 µM PA-IL; for cross-linking of PA-IL (formation of the 6.4 S particle): protein:ligand ratios 1:0.1, 1:1, 1:10
Experimental: Analytical ultracentrifugation experiments were performed using ProteomeLab XL-I analytical ultracentrifuge (Beckman Coulter, Indianapolis, IN, USA) equipped with an An-60 Ti rotor. Sedimentation velocity experiments were conducted in titanium double-sector centerpiece cells (Nanolytics Instruments, Potsdam, Germany) loaded with 390 µL of both protein sample and reference solution (PBS buffer, pH = 7.5). PA-IL without the added ligand and PA-IL samples pre-incubated with different concentrations of galactosylated dendrimers 4, 7, 10 and 13 and D-galactose (protein:ligand ratios of 1:0.1, 1:1 and 1:10) were analyzed by the sedimentation velocity experiment. All the measurements were performed in PBS buffer with 22 µM PA-IL. Data were collected using absorbance optics at 25 °C at a rotor speed of 48,000 rpm. Scans were collected at 280 nm (or alternatively at 294 nm to decrease the absorbance signal of the samples containing excess of the UV-absorbing ligands 4 and 10) at 5-min intervals and 0.003 cm spatial resolution in continuous scan mode. The partial specific volume of the protein and the solvent density and viscosity were calculated from the amino acid sequence and buffer composition, respectively, using the software Sednterp (http://bitcwiki.sr.unh.edu). The data were analyzed with the continuous c(s) distribution model implemented in the program Sedfit 15.01b. For the regularization procedure, a confidence level of 0.95 was used. The plots of c(s) distributions were created in GUSSI 1.3.1 [28].

[3] = target: T1, lectin PA-IL; test: Isothermal titration microcalorimetry (ITC); format: binding; conditions: for ΔH / −T ΔS / ΔG / n (stoichiometry) / Ka: ITC, 25 °C; for −T ΔS: calculated from ΔG = ΔH − TΔS; for ΔG: calculated from −RT ln Ka; for n (stoichiometry): single site-binding model; for Ka: association constant
Experimental: All the experiments were performed on MicroCal iTC200 (Malvern Instruments, Malvern, UK) at 25 °C. The freeze-dried lectin PA-IL was dissolved in 0.1 M Tris/HCl, 500 μM CaCl2, pH = 7.5, and equilibrated at room temperature for 1 h before ITC measurements. Multivalent galactosylated compounds 4, 7, 10 and 13 were diluted in the same buffer and used in 0.25–0.5 mM concentrations. Aliquots of 2 µL of the compounds were added automatically to the 0.078 mM or 0.088 mM PA-IL in the calorimeter cell. Blank experiments (injections of compounds to the buffer) were performed and heat responses were subtracted. Integrated heat effects were analyzed by global fitting of data obtained from three independent titrations for each tested compound by non-linear regression using a single site-binding model (Microcal Origin 7, Malvern Instruments, Malvern, UK). Fitted data yielded the association constant (Ka) and the enthalpy of binding (ΔH). Other thermodynamic parameters, i.e., changes in free energy (ΔG) and entropy (ΔS), were calculated from the following equation: ΔG = ΔH − TΔS = −RT ln Ka, where T is the absolute temperature and R = 8.314 J mol^−1 K^−1. The monosaccharide D-galactose was used as a control; 4 mM D-galactose was added to the 0.147 mM PA-IL in the calorimeter cell. Two titration experiments were performed and the heat responses were processed and evaluated as mentioned above.

[4] = system: Pseudomonas aeruginosa CCM 3955 (ATCC 27853) cells; test: Pseudomonas aeruginosa cross-linking assay with microscope detection; format: cell-based; conditions: for cross-linking of whole P. aeruginosa cells (cell aggregates): concentrations up to 5 mM, 10 min, microscope 100x
Experimental: Pseudomonas aeruginosa CCM 3955 (ATCC 27853) cells were inoculated from stock cells stored at −80 °C into a standard LB medium and were grown at 37 °C overnight under orbital shaking. The bacterial culture was kept in the fridge until further use. Prior to the experiment, bacterial cells were centrifuged at 4300× g (Eppendorf centrifuge MiniSpin, Eppendorf, Germany) for 2 min and subsequently washed three times with PBS buffer (137 mM NaCl, 2.7 mM KCl, 10 mM Na2HPO4, 1.8 mM KH2PO4). Bacterial cells were then diluted in PBS to an optical density OD600 = 1.5, which was checked using a spectrophotometer (WPA CO8000 Biovawe Cell Density Metr, Biochrom Ltd., Cambridge, UK). D-galactopyranoside-presenting inhibitors were diluted in ultrapure water to the concentration of 100 mM. Bacterial cells were mixed in a 9:1 ratio with the 10x concentrated selected compounds and gently mixed. The mixture was incubated at room temperature for 10 min and thoroughly mixed again. An amount of 5 µL of the mixture was transferred onto a microscope slide and observed under 100x magnification using an optical microscope (Olympus IX81F-3/IX81S1F-3, Olympus, Tokyo, Japan). As a negative control, bacterial culture mixed with ultrapure water in 9:1 ratio was used. The images were obtained using a phase contrast method and the background of the images was subtracted in GIMP.

T1 sequence (Q05097 2-122): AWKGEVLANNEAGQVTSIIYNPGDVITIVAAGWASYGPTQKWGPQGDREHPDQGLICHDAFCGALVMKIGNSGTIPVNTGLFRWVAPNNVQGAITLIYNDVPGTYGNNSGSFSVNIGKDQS

**Q.** Which results are given for `COC(=O)c1cc(OCc2cn(CCn3cc(CO[C@@H]4O[C@H](CO)[C@H](O)[C@H](O)[C@H]4O)nn3)nn2)c(OCc2cn(CCn3cc(CO[C@@H]4O[C@H](CO)[C@H](O)[C@H](O)[C@H]4O)nn3)nn2)c(OCc2cn(CCn3cc(CO[C@@H]4O[C@H](CO)[C@H](O)[C@H](O)[C@H]4O)nn3)nn2)c1` [Compound 10]?
**A.** Potency (MIC of standard/MIC of inhibitor) [1]: 64; β (Potency/Valency) [1]: 21.3; MIC (minimal inhibitory concentration) [1]: 97.66 µM (≈ 126 µg/mL); level of cross-linking (6.4 S octameric species) [2]: ~ 15%; cross-linking of PA-IL (formation of the 6.4 S particle) [2]: induced the formation of the 6.4 S particle; Kd [3]: 820 nM; ΔH [3]: -16.3 ± 0.179 kcal/mol; −T ΔS [3]: 7.98 ± 0.925 kcal/mol; ΔG [3]: -8.29 ± 0.87 kcal/mol; n (stoichiometry) [3]: 0.53 ± 0.01; cross-linking of whole P. aeruginosa cells (cell aggregates) [4]: Formation of aggregates was observed

**Q.** Which “Potency (MIC of standard/MIC of inhibitor)” value [1] does the source give for `OC[C@H]1O[C@@H](OCc2cn(CCn3cc(COCC(COCc4cn(CCn5cc(CO[C@@H]6O[C@H](CO)[C@H](O)[C@H](O)[C@H]6O)nn5)nn4)(COCc4cn(CCn5cc(CO[C@@H]6O[C@H](CO)[C@H](O)[C@H](O)[C@H]6O)nn5)nn4)COCc4cn(CCn5cc(CO[C@@H]6O[C@H](CO)[C@H](O)[C@H](O)[C@H]6O)nn5)nn4)nn3)nn2)[C@H](O)[C@@H](O)[C@H]1O` [Compound 13] here?
**A.** 128

**Q.** What about the “β (Potency/Valency)” value [1] of the same molecule?
**A.** 32

**Q.** What about the “MIC (minimal inhibitory concentration)” value [1] of the same molecule?
**A.** 48.83 µM (≈ 78.6 µg/mL)

**Q.** What about the “level of cross-linking (6.4 S octameric species)” value [2] of the same molecule?
**A.** ~ 15%

**Q.** What about the “cross-linking of PA-IL (formation of the 6.4 S particle)” value (“cross-linking of PA-IL” below) [2] of the same molecule?
**A.** induced the formation of the 6.4 S particle

**Q.** And the ΔH [3]?
**A.** -32.03 ± 0.347 kcal/mol

**Q.** What about the Ka [3] of the same molecule?
**A.** 470 ± 54.5 10^4 M^−1

**Q.** What about the “−T ΔS” value [3] of the same molecule?
**A.** 22.9 ± 2.904 kcal/mol

**Q.** What about the ΔG [3] of the same molecule?
**A.** -9.11 ± 1.06 kcal/mol

**Q.** And the “n (stoichiometry)” value [3]?
**A.** 0.21 ± 0.01

**Q.** And the “cross-linking of whole P. aeruginosa cells (cell aggregates)” value [4]?
**A.** no aggregates were observed; also recorded: no clearly distinguishable aggregates were detected

**Q.** With `OC[C@H]1O[C@@H](OCc2cn(CCOCCOCCOCCn3cc(COCC(COCc4cn(CCOCCOCCOCCn5cc(CO[C@@H]6O[C@H](CO)[C@H](O)[C@H](O)[C@H]6O)nn5)nn4)(COCc4cn(CCOCCOCCOCCn5cc(CO[C@@H]6O[C@H](CO)[C@H](O)[C@H](O)[C@H]6O)nn5)nn4)COCc4cn(CCOCCOCCOCCn5cc(CO[C@@H]6O[C@H](CO)[C@H](O)[C@H](O)[C@H]6O)nn5)nn4)nn3)nn2)[C@H](O)[C@@H](O)[C@H]1O` [Compound 7] as the molecule, how does the “Potency (MIC of standard/MIC of inhibitor)” value [1] read?
**A.** 256

**Q.** And the “β (Potency/Valency)” value [1]?
**A.** 64

**Q.** And the “MIC (minimal inhibitory concentration)” value [1]?
**A.** 24.41 µM (≈ 52.2 µg/mL)

**Q.** And the “level of cross-linking (6.4 S octameric species)” value [2]?
**A.** ~ 30%

**Q.** And the “cross-linking of PA-IL” value [2]?
**A.** induced the formation of the 6.4 S particle

**Q.** What about the ΔH [3] of the same molecule?
**A.** -26.29 ± 0.196 kcal/mol

**Q.** And the Ka [3]?
**A.** 281 ± 23.5 10^4 M^−1

**Q.** And the “−T ΔS” value [3]?
**A.** 17.4 ± 1.59 kcal/mol

**Q.** What about the ΔG [3] of the same molecule?
**A.** -8.8 ± 0.739 kcal/mol

**Q.** And the “n (stoichiometry)” value [3]?
**A.** 0.32 ± 0.01

**Q.** What about the “concentration at which aggregates distinguishable from the negative control were still observed” value [4] of the same molecule?
**A.** 1.25 mM

**Q.** What about the “cross-linking of whole P. aeruginosa cells (cell aggregates)” value [4] of the same molecule?
**A.** highest cross-linking activity; also recorded: Formation of aggregates was observed

**Q.** Which “Potency (MIC of standard/MIC of inhibitor)” value [1] does the source give for `COC(=O)c1cc(OCc2cn(CCOCCOCCOCCn3cc(CO[C@@H]4O[C@H](CO)[C@H](O)[C@H](O)[C@H]4O)nn3)nn2)c(OCc2cn(CCOCCOCCOCCn3cc(CO[C@@H]4O[C@H](CO)[C@H](O)[C@H](O)[C@H]4O)nn3)nn2)c(OCc2cn(CCOCCOCCOCCn3cc(CO[C@@H]4O[C@H](CO)[C@H](O)[C@H](O)[C@H]4O)nn3)nn2)c1` [Compound 4] here?
**A.** 128

**Q.** And the “β (Potency/Valency)” value [1]?
**A.** 42.7

**Q.** And the “MIC (minimal inhibitory concentration)” value [1]?
**A.** 48.83 µM (≈ 82.3 µg/mL)

**Q.** What about the “cross-linking of PA-IL” value [2] of the same molecule?
**A.** did not form intermolecular cross-links

**Q.** What about the ΔH [3] of the same molecule?
**A.** -19.3 ± 0.241 kcal/mol

**Q.** What about the Ka [3] of the same molecule?
**A.** 128 ± 15.1 10^4 M^−1

**Q.** What about the “−T ΔS” value [3] of the same molecule?
**A.** 11 ± 1.43 kcal/mol

**Q.** What about the ΔG [3] of the same molecule?
**A.** -8.32 ± 0.982 kcal/mol

**Q.** What about the “n (stoichiometry)” value [3] of the same molecule?
**A.** 0.51 ± 0.01

**Q.** What about the “cross-linking of whole P. aeruginosa cells (cell aggregates)” value [4] of the same molecule?
**A.** Formation of aggregates was observed
